The record followed here is patent publication US6685617B1, “Inhibitors of α4β1 mediated cell adhesion” (Pharmacia & Upjohn Company, priority 1998, dated 2004).

Some results are limits rather than exact numbers.

Test [1] has as its target T1, α4β1 integrin (Jurkat T-cell adhesion to IL-1 stimulated endothelial cell monolayers) (Homo sapiens, UniProt P05556+P13612).
T1 construct: a T-cell line, Jurkat, known to express the α4β1 integrin; host or cells: Jurkat T-cell line
Put plainly: Jurkat-endothelial cell adhesion assay (Jurkat EC). The following applies: Jurkat cells on IL-1 stimulated human umbilical vein endothelial cells; read-out: JK/EC (Jurkat EC Assay IC50 value range). The class given is cell-based. Here is the method:
Jurkat-endothelial Cell Adhesion Assay:
The following assay established the activity of the present compounds in inhibiting β1-mediated cell adhesion in a representative in vitro system. This assay measures the adhesive interactions of a T-cell line, Jurkat, known to express the α4β1 integrin, to endothelial monolayers in the presence of test compounds. The test compounds were added in increasing concentrations to T-cells and then the T-cell compound mixture was added to IL-1 stimulated endothelial cell monolayers. The plates were incubated, washed and the percentage of attached cells was quantitated.
Human umbilical vein endothelial cells were purchased from Clonetics (San Diego, Calif.) at passage number 2. The cells were grown on 0.5% porcine skin gelatin pre-coated flasks (Sigma, St. Louis Mo.) in EGM-UV media (Clonetics, San Diego, Calif.) supplemented with 10% fetal bovine serum. Cells are refed every 2-3 days reaching confluence by day 4 to 6. […] The endothelial cells are not used following passage 6.
The T-cell line Jurkat was obtained from American Type Tissue Culture Collection (Rockville, Md.) and the cells were cultured in RPMI containing 10% fetal calf serum. The cells were washed twice in Hank's Balanced Salt Solution (HBSS) and resuspended in Dulbecco's Minimal Eagle's Media (DMEM) containing 2.5 mg/ml Human Serum Albumin (HSA). Jurkat cells (1×10^6 cells/ml) were stained with 10 ng/ml BCECF-AM (Molecular Probes, Eugene, Oreg.)) in HBSS without phenol red. The cells were loaded with BCECF for 60 minutes in the dark at 370C, washed 2 times, and resuspended in DMEM-HSA solution.
Confluent endothelial monolayers, grown in 96-well tissue culture plates, were stimulated for 4 hr. at 37° C. with 0.1 ng/ml (˜50 U/ml) recombinant IL-1 (Amgen, Thousand Oaks, Calif.). Following this incubation, the monolayers were washed twice with HBSS and 0.1 ml of DMEM−HSA solution was added. Jurkat cells (5×10^5 cells) were combined with the appropriate concentration of the test compound and 0.1 ml of the Jurkat cell-compound mixture was added to the endothelial cell monolayers. Generally, 100, 20, 5 and 1.25 μM compound concentrations were tested. […] The plates were placed on ice for 5 minutes to allow for Jurkat cell settling and the plates were incubated at 37° C. for 20 minutes. Following this incubation, the monolayers were washed twice with PBS containing 1 mM calcium chloride and 1 mM magnesium chloride and the plates were read using a Millipore Cytofluor 2300 (Marlboro, Mass.). Fluorescence in each well was measured as Arbitrary Fluorescence Units and percent adhesion in the absence of compound was adjusted to 100% and the % adhesion in the presence of compound was calculated. Monolayers were also fixed in 3% paraformaldehyde and evaluated microscopically to verify the adhesion. This procedure is a modification of a previously published method (Cardarelli et al., J. Biol. Chem. 269:18668-18673 (1994)).

The target of test [2] is T2, α4β1 integrin (Jurkat cell adhesion to immobilized CS-1 derived peptide CLHPGEILDVPST) (Homo sapiens, UniProt P05556+P13612).
T2 construct: 100 μl of Jurkat cells (2.5×10^6 cells/ml) in DMEM plus BSA; host or cells: Jurkat T-cell line
Put plainly: Jurkat-CS-1 assay. The class given is cell-based. The following applies: Jurkat cells on CS-1 peptide coated plates; read-out: JK/CS-1 (Jurkat CS-1 Assay IC50 value range). Here is the method: The CS-1 derived peptide, CLHPGEILDVPST, and the scrambled control peptide, CLHGPIELVSDPT, were synthesized on a Beckman 990 synthesizer using t-Boc methodology. The peptides were immobilized onto microtiter plates using the heterobifunctional crosslinker 3-(2-pyridyldithio)propionic acid N-hydroxysuccinimide ester (SPDP) as reported by Pierschbacher et al., Proc. Natl. Acad. USA, 80:1224-1227 (1983). Microtiter plates were coated with 20 μg/ml HSA for 2 hr. at room temperature, washed once with PBS and derivatized with 10 μg/ml SPDP for 1 hr. After washing, 100 μl of a 100 μg/ml cysteine containing peptide solution which had been recently dissolved was added to the wells and allowed to crosslink to the plates overnight at 4° C. Unbound peptide was removed from plates by washing with PBS. To block non-reacted sites, the plates are coated with 100 μl of a 2.5 mg/ml BSA solution in PBS for 1 hr. at 37° C. 100 μl of Jurkat cells (2.5×10^6 cells/ml) in DMEM plus BSA (2.5 mg/ml) was mixed with an appropriate concentration of the compound to be tested and the mixture was added to peptide coated dishes and incubated for 1 hr. at 37° C. Generally 100, 20, 5 and 1.25 μM concentrations of the compound were tested.
Following this incubation the plates were washed once with PBS and the attached cells were fixed with 3% paraformaldehyde in PBS and stained with 0.5% toluidine blue in 3.7% formaldehyde. The cells were stained overnight at room temperature and the optical density at 590 nm of toluidine blue stained cells was determined using a vertical pathway spectrophotometer to quantitate attachment (VMAX Kinetic Microplate Reader, Molecular Devices, Menlo Park, Calif.). This procedure is a modification of a previously published method (Cardarelli et al, J. Biol. Chem., 269:18668-18673 (1994) and Cardarelli et al, Proc. Natl. Acad. Sci. USA, 83:2647-2651 (1986)).

T2 sequence (P13612 34-1032): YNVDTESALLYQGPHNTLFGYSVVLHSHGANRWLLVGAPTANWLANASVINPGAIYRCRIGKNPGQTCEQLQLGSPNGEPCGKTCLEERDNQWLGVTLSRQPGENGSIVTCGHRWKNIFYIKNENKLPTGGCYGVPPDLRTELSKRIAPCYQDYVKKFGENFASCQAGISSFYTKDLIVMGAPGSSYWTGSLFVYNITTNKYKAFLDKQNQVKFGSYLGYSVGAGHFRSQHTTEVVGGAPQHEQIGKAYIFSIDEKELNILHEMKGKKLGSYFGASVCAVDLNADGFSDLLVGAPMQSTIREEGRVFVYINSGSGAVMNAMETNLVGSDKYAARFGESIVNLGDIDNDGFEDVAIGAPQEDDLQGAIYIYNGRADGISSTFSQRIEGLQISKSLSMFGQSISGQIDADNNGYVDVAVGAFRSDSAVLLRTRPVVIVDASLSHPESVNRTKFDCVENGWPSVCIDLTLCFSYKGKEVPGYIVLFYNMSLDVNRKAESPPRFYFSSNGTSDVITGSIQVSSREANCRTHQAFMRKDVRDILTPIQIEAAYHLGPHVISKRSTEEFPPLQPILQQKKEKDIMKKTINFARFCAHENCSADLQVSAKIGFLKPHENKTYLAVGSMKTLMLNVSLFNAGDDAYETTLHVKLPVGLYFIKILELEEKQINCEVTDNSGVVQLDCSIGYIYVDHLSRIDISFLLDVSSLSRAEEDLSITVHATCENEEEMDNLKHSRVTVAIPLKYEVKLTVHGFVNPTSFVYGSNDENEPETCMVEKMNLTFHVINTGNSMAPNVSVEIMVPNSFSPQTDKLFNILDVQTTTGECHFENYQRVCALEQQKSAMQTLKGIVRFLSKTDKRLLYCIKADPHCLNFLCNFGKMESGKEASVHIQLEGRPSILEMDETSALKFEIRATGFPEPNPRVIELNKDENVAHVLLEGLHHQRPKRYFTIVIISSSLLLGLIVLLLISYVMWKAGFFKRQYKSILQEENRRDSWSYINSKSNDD
T2 sequence (P05556 21-798): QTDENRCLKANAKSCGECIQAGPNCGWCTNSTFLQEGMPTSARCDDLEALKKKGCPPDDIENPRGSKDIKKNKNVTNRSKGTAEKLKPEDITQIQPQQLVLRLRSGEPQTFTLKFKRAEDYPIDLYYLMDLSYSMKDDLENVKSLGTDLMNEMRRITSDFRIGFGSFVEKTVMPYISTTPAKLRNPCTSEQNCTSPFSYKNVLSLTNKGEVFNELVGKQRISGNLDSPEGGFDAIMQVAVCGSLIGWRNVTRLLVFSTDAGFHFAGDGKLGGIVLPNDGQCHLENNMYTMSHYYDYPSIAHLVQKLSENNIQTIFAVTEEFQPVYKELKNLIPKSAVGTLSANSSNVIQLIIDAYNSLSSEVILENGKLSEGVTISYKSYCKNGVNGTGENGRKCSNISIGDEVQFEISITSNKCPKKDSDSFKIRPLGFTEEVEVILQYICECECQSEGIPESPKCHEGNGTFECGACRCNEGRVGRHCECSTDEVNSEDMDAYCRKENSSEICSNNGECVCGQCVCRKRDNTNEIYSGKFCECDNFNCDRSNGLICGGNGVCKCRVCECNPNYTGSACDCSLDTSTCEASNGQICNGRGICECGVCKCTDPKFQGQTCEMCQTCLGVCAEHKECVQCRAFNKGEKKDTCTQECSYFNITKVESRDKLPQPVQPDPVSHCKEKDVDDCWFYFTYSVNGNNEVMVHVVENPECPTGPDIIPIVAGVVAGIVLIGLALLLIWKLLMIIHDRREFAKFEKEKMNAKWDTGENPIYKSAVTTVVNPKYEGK
T1 sequence (P13612 34-1032): as the sequence (P13612 34-1032) above
T1 sequence (P05556 21-798): as the sequence (P05556 21-798) above

With `COC(=O)[C@H](Cc1ccc(NC(=O)c2c(Cl)cccc2Cl)cc1)NC(=O)[C@H]1CSCN1C(=O)OC(C)(C)C` (relative stereo) [Example 1, [S-(R*,R*)]-4-[[[1-[[4-[(2,6-Dichlorobenzoyl)amino]phenyl]methyl]-2-methoxy-2-oxoethyl]amino]carbonyl]-3-thiazolidinecarboxylic Acid 3-(1,1-Dimethylethyl)ester], the IC50 in test [1] was no less than 1000 nM; in test [2], 50 to 750 nM.

Take `CCOC(=O)N1CSC[C@@H]1C(=O)N[C@@H](Cc1ccc(NC(=O)c2c(Cl)cccc2Cl)cc1)C(=O)OC` (relative stereo) [Example 4, [S-(R*,R*)]-4-[[[1-[[4-[(2,6-Dichlorobenzoyl)amino]phenyl]methyl]-2-methoxy-2-oxoethyl]amino]carbonyl]-3-thiazolidinecarboxylic Acid 3-Ethyl Ester]: the results for the IC50 in test [1] and in test [2] were no more than 250 nM and no more than 50 nM, respectively.

On to `COC(=O)[C@H](Cc1ccc(OCc2c(Cl)cccc2Cl)cc1)NC(=O)[C@H]1CSCN1C(=O)OCCN1CCCCC1` (relative stereo) [Example 5, [S-(R*,R*)]-4-[[[1-[4-[(2,6-Dichlorophenyl)methoxy]phenyl)methyl]-2-methoxy-2-oxoethyl]amino]carbonyl]-3-thiazolidinecarboxylic Acid 3-[2-(1-piperidinyl)ethyl]ester], for which the IC50 in test [1] is 250 to 1000 nM; in test [2], 50 to 750 nM.

In the case of `COC(=O)CCC(=O)N1CSC[C@@H]1C(=O)N[C@@H](Cc1ccc(NC(=O)c2c(Cl)cccc2Cl)cc1)C(=O)OC` (relative stereo) [Example 8, [S-(R*,R*)]-4-[[[1-[[4-[(2,6-Dichlorobenzoyl)amino]phenyl]methyl]-2-methoxy-2-oxoethyl]amino]carbonyl]-γ-oxo-3-thiazolidinebutanoic Acid 3-Methyl Ester], the results for the IC50 in test [1] and in test [2] were 250 to 1000 nM and 50 to 750 nM, respectively.

As to `O=C(O)CCC(=O)N1CSC[C@@H]1C(=O)N[C@@H](Cc1ccc(NC(=O)c2c(Cl)cccc2Cl)cc1)C(=O)O` (relative stereo) [Example 9, [S-(R*,R*)]-4-[[[1-Carboxy-2-[4-[(2,6-dichlorobenzoyl)amino]phenyl]ethyl]amino]carbonyl]-γ-oxo-3-thiazolidinebutanoic Acid], the IC50 in test [1] was no more than 250 nM; in test [2], no more than 50 nM.

Regarding `CC(C)(C)OC(=O)N1CSC[C@@H]1C(=O)N[C@@H](Cc1ccc(NC(=O)c2c(Cl)cccc2Cl)cc1)C(=O)O` (relative stereo) [Example 10, [S-(R*,R*)]-4-[[[1-Carboxy-2-[4-[(2,6-dichlorobenzoyl)amino]phenyl]ethyl]amino]carbonyl]-3-thiazolidinecarboxylic Acid 3-(1,1-Dimethylethyl)ester], the IC50 was no more than 250 nM in test [1] and no more than 50 nM in test [2].

With `CCOC(=O)N1CSC[C@H]1C(=O)N[C@@H](Cc1ccc(NC(=O)c2c(Cl)cccc2Cl)cc1)C(=O)OC` (relative stereo) [Example 15, [R-(R*,S*)]-4-[[[1-[[4-[(2,6-Dichlorobenzoyl)amino]phenyl]methyl]-2-methoxy-2-oxoethyl]amino]carbonyl]-3-thiazolidinecarboxylic Acid 3-Ethyl Ester], the figures for the IC50 in test [1] and in test [2] were no less than 1000 nM and no less than 750 nM, respectively.

On to `CCOC(=O)N1CSC[C@H]1C(=O)N[C@@H](Cc1ccc(NC(=O)c2c(Cl)cccc2Cl)cc1)C(=O)O` (relative stereo) [Example 16, [R-(R*,S*)]-4-[[[1-Carboxy-2-[4-[(2,6-dichlorobenzoyl)amino]phenyl]ethyl]amino]carbonyl]-3-thiazolidinecarboxylic Acid 3-Ethyl Ester], for which the IC50 is no more than 250 nM in test [1] and 50 to 750 nM in test [2].

As for `COC(=O)[C@H](Cc1ccc(NC(=O)c2c(Cl)cccc2Cl)cc1)NC(=O)[C@H]1N(C(=O)OC(C)(C)C)CSC1(C)C` (relative stereo) [Example 17, [R-(R*,S*)]-4-[[[1-[[4-[(2,6-Dichlorobenzoyl)amino]phenyl]methyl]-2-methoxy-2-oxoethyl]amino]carbonyl]-5,5-dimethyl-3-thiazolidinecarboxylic Acid 3-(1,1-Dimethylethyl)ester], the IC50 in test [1] is no less than 1000 nM; in test [2], no less than 750 nM.

For `COC(=O)[C@H](Cc1ccc(NC(=O)c2c(Cl)cccc2Cl)cc1)NC(=O)[C@H]1CSCN1C(=O)OCC1c2ccccc2-c2ccccc21` (relative stereo) [Example 18], the IC50 in test [1] is no less than 1000 nM; in test [2], no less than 750 nM.

For the compound `O=C(Nc1ccc(C[C@H](NC(=O)[C@H]2CSCN2C(=O)OCC2c3ccccc3-c3ccccc32)C(=O)O)cc1)c1c(Cl)cccc1Cl` (relative stereo) [Example 19], the IC50 is no more than 250 nM in test [1] and 50 to 750 nM in test [2].

On to `COC(=O)[C@H](Cc1ccc(NC(=O)c2c(Cl)cccc2Cl)cc1)NC(=O)[C@H]1CSCN1C(=O)OCc1ccccc1` (relative stereo) [Example 20, [S-(R*,R*)]-4-[[[1-[[4-[(2,6-Dichlorobenzoyl)amino]phenyl]methyl]-2-methoxy-2-oxoethyl]amino]carbonyl]-3-thiazolidinecarboxylic Acid 3-Phenylmethyl Ester], for which the figures for the IC50 in test [1] and in test [2] were no less than 1000 nM and no less than 750 nM, respectively.

For `O=C(Nc1ccc(C[C@H](NC(=O)[C@H]2CSCN2C(=O)OCc2ccccc2)C(=O)O)cc1)c1c(Cl)cccc1Cl` (relative stereo) [Example 21, [S-(R*,R*)]-4-[[[1-Carboxy-2-[4-[(2,6-dichlorobenzoyl)amino]phenyl]ethyl]amino]carbonyl]-3-thiazolidinecarboxylic Acid 3-Phenylmethyl Ester], the IC50 in test [1] was no more than 250 nM; in test [2] it was 50 to 750 nM.

As to `CN1CCN(CCOC(=O)N2CSC[C@@H]2C(=O)N[C@@H](Cc2ccc(OCc3c(Cl)cccc3Cl)cc2)C(N)=O)CC1` [Example 287, (4S)-4-[[[(1S)-2-Amino-1-[[4-[(2,6-dichlorophenyl)methoxy]phenyl]methyl]-2-oxoethyl]amino]carbonyl]-3-thiazolidinecarboxylic Acid 3-[2-(4-Methyl-1-piperazinyl)ethyl]ester], the IC50 in test [2] lay in the range of 50 to 750 nM.

As to `NC(=O)[C@H](Cc1ccc(NC(=O)c2c(Cl)cccc2Cl)cc1)NC(=O)[C@H]1CSCN1C(=O)OCCN1CCOCC1` [Example 288, (4S)-4-[[[(1S)-2-Amino-1-[[4-[(2,6-dichlorobenzoyl)amino]phenyl]methyl]-2-oxoethyl]amino]carbonyl]-3-thiazolidinecarboxylic Acid 3-[2-(4-Morpholinyl)ethyl]ester], the IC50 in test [2] is no less than 750 nM.
